Experimental data as given in patent publication US11028127B2, “Peptides capable of reactivating p53 mutants” (Yeda Research and Development Co. Ltd., priority 2013, dated 2021).
Where no end group is shown, it is not given here.

How the values were obtained:
[1] = tested on: MDA-MB-231 breast cancer cells (Mut-p53, position 280); assay: Crystal violet viability assay; format: cell-based; settings: shCon cells
Description: (§1) FIGS. 15A and 15B are bar graphs illustrating the effect of the various indicated peptides on the viability of breast cancer cells expressing different Mut-p53 isoforms, as determined by crystal violet assay. FIG. 15A: MDA-MB-231 cells expressing Mut-p53 with a mutation at position 280 of the DBD. FIG. 15B: SKBR3 cells expressing Mut-p53 with mutation at position 175 within the DBD. The bar graphs in FIGS. 15A and 15B show for each tested peptide the optical density reads at 595 nm, reflecting the number of cells in the plate after treatment, normalized to the non-treated (NT) samples.
(§2) Cells were cultured in 96 wells plates with 2500-4000 cells/well in 0.1 ml and incubated overnight at 37° C. in order to adhere to the plate. Serial dilutions of different peptides (0.5 μg/ml) were added in 0.1 ml aliquots and the plates incubated for additional 48 h at 37° C. Then medium was removed and cell lysis was determined by staining the cells with crystal violet (0.5%) in methanol/water (1:4, v/v), 50 μl each well, for 10 min, followed by 3 washes with PBS. Afterwards, 10% acetic acid (50 μl) was added to each well and shaken for 10 min. Then, automatic plate reading was performed at 595 nm.
(§3) Experiments using different cancer cell lines expressing endogenously different p53 mutant isoforms were performed. FIGS. 15A and 15B illustrate two representative experiments performed on MDA-MB-231 (FIG. 15A) and SKBR3 (FIG. 15B) breast cancer cells expressing Mut-p53 with mutations at positions 280 or 175, respectively, within the DNA Binding Domain (DBD). To examine the peptides' specificity for Mut-p53, the control used was such cells with a knockdown of Mut-p53 (shp53).

[2] = tested on: SKBR3 breast cancer cells (Mut-p53, position 175); assay: Crystal violet viability assay; format: cell-based; settings: shCon cells
Description: as §1, §2, §3

Solubility in DMSO = format: physicochemical; settings: at a concentration of 10 mg/ml
Description: Addition of a poly arginine tail to peptides dramatically increases the solubility of peptides with a high content of hydrophobic amino acids. […] Lead peptides were further subjected to rigorous examination of effects on cell viability in a Mut-p53 specific manner.

[3] = tested on: ES2 ovarian carcinoma cells (Mut-p53, position 241); assay: qRT-PCR of p53 target genes (p21, PUMA, CD95, Btg-2); format: cell-based; settings: 12 ug/ml, over non-treated cells
Description: (§4) FIGS. 17A, 17B, 17C and 17D illustrate representative experiments performed on ES2 ovarian carcinoma cells expressing Mut-p53 mutated at position 241 within the DBD. […] Cells were harvested and an apoptosis assay (FIGS. 17A and 17B) was performed using the Annexin-V staining kit (Roche, REF 11 988 549 001). Non-fixed cells were stained with both anti Annexin FITC conjugated antibody to detect apoptotic cells, and PI (propidium iodide) to stain dead cells, according to the manufacturer's instructions. Stained cells were then analyzed by flow cytometry. A total of 10,000 cells was counted for each sample and divided into four sub populations according to staining intensity; cells negative for both PI and Annexin (−PI, −Annexin) are termed live; cells negative for PI and positive for Annexin (−PI, +Annexin) are going through early stages of apoptosis; cells positive for PI and Annexin (+PI, +Annexin) are dead cells that underwent an apoptotic process; and cells positive for PI and negative for Annexin (+PI, −Annexin) are assumed as dead cells that died by a non-apoptotic process such as necrosis.
FIGS. 17A and 17B illustrate a representative experiments performed on ES2 ovarian carcinoma cells (FIGS. 17A-D) expressing Mut-p53 with a mutation at positions 241 within the DBD. […] Stained cells were then analyzed by flow cytometry. […]

[4] = tested on: ES2 ovarian carcinoma cells (Mut-p53, position 241); assay: Annexin-V/PI apoptosis assay by flow cytometry; format: cell-based; settings: 12 ug/ml
Description: as §4
FIGS. 17A and 17B illustrate a representative experiments performed on ES2 ovarian carcinoma cells (FIGS. 17A-D) expressing Mut-p53 with a mutation at positions 241 within the DBD. […] Cells were harvested, and 60% of the cells were taken for Annexin-PI apoptosis assay and 40% for extraction of RNA, cDNA synthesis and real time PCR analysis. Apoptosis was assayed using the Annexin-V staining kit (Roche, REF 11 988 549 001). Non-fixed cells were stained with both anti Annexin FITC conjugated antibody to detect apoptotic cells, and PI (propidium-iodide) to stain dead cells permeable to the compound, according to the manufacturer's instructions. Stained cells were then analyzed by flow cytometry. A total of 10,000 cells was counted for each sample and divided into four subpopulations according to staining intensity: cells negative for both PI and Annexin (−PI, −Annexin) are termed live; cells negative for PI and positive for Annexin (−PI, +Annexin) are going through early stages of apoptosis; cells positive for PI and Annexin (+PI, +Annexin) are dead cells that underwent an apoptotic process; and cells positive for PI and negative for Annexin (+PI, −Annexin) are assumed to be dead cells that died a non-apoptotic death such as necrosis. […] Treatment with pCAPs 242 and 250 causes a rapid increase in apoptotic cells followed by cell death and after 5 hours of treatment 12% of cells are Annexin positive and about 7% are dead. After 16 and 24 hours of treatment with pCAP 250 the apoptotic population increases to about 27% and dead cells accumulate to 29% at 16h and 36% after 24h. […] CD95 and Btg-2 expression is elevated up to 6 fold over non-treated cells.

Question: For HANLHHTRRRRRRRRRRR [pCAP-146], which “Mut-p53 specific effect on cell viability, MDA-MB-231 shCon cells” value [1] is on record?
Answer: significant decrease

Question: What about the “Mut-p53 specific effect on cell viability, SKBR3 shCon cells” value [2] of the same substance?
Answer: almost no specific effect

Question: With YRRLLIGMMW [pCAP-25] as the substance, how does the “solubility in DMSO” value (Solubility in DMSO) read?
Answer: insoluble

Question: With myr-RRHSTPHPD [pCAP-250] as the substance, how does the “p21 and PUMA mRNA expression increase over time” value [3] read?
Answer: up to 10 fold

Question: And the apoptotic population ([4]; after 16 and 24 hours of treatment)?
Answer: about 27%

Question: What about the Annexin positive cells ([4]; after 5 hours of treatment) of the same substance?
Answer: 12%

Question: And the dead cells ([4]; after 5 hours of treatment)?
Answer: about 7%

Question: And the dead cells ([4]; after 24h)?
Answer: 36%

Question: What about the dead cells ([4]; at 16h) of the same substance?
Answer: 29%
